What was measured:
[1] = system: oxidation-induced EMT in RPE; test: Immunoreactivity of mesenchymal markers (Slug, Snail, vimentin, OB-cadherin) in RPE sections; assay type: in vivo, C57BL/6J mice; details: aged mice, 2 or 10 mg/kg/d by gavage for 5 months
Procedure: (§1) They were randomly divided into three groups: (1) non-supplement group (Con, n=6); (2) L-Ergothioneine supplement group with low dosage (L-Ergothioneine, 2 mg/kg/d, n=6); (3) L-Ergothioneine supplement group with high dosage (L-Ergothioneine, 10 mg/kg/d, n=6). Some mice were administered L-Ergothioneine for once daily by gavage in normal saline solution for 5 months.
(§2) Mice were euthanized by CO2 inhalation followed by cervical dislocation at the end of study and their eyes were immediately removed. The eyes of some mice (n=3) fixed in 2% paraformaldehyde for 2 h and the retina samples of some mice (n=3) were isolated from eyes radically. All tissues were frozen in optimal cutting temperature embedding compound.
From paraffin embedded blocks, 3 μm-thick parasagittal serial sections were cut with a microtome for future testing the immunoreactivity of mesenchymal markers. The immunoreactivity of mesenchymal markers (Slug, Snail, vimentin, OB-cadherin) was examined with a confocal microscope. And semi-quantitative comparative densitometric analysis performed by ImageJ of the immunoreactivity of the mesenchymal markers in 1-μm parasagittal sections of RPE. Alexa Fluor secondary antibodies were used to detect specific mesenchymal markers. DAPI (4,6-diamidino-2-fenilindole, dihydrochloride) was used to stain the nuclei of RPE cells.

VEGF = VEGF ELISA in retina tissue homogenate; assay type: in vivo, C57BL/6J mice; details: aged mice, 2 or 10 mg/kg/d by gavage for 5 months
Procedure: They were randomly divided into three groups: (1) non-supplement group (Con, n=6); (2) L-Ergothioneine supplement group with low dosage (L-Ergothioneine, 2 mg/kg/d, n=6); (3) L-Ergothioneine supplement group with high dosage (L-Ergothioneine, 10 mg/kg/d, n=6). Some mice were administered L-Ergothioneine for once daily by gavage in normal saline solution for 5 months. […] Partial retina tissues were obtained and rapidly broken up in ice-cold normal saline. A tissue homogenate (10%, w/v) was then prepared. Retina tissues homogenate was centrifuged (2000 rpm, 10 min, 4° C.) and the supernatants were collected and applied to a pre-coated human VEGF microplate. VEGF concentrations was measured in experimental groups of mice using enzyme-linked immunosorbent assay (ELISA) kits to evaluate the levels of proinflammatory cytokines in the retina. This test can assess that the ability of L-Ergothioneine to prevent age-related visual degeneration-induced increases in VEGF level.

vegfaa genes = test: Zebrafish q-PCR of vegfaa genes; assay type: in vivo; details: 3 days at 28° C., FIG. 6
Procedure: (§3) After 3 days of supplementation at 28° C., the total RNA of each group of zebrafish was extracted using an RNA rapid extraction kit, and the concentration and purity of total RNA were determined by UV-Vis spectrophotometer. Take 2.00 μg of total RNA from zebrafish samples and follow the instructions of the first-strand cDNA synthesis kit to synthesize 20.0 μL of cDNA, and detect the expression of ß-actin and VEGFR1 genes by q-PCR. Using 6-actin as an internal reference for gene expression, the relative RNA expression levels of VEGFR1 genes were calculated.
(§4) The other test condition and methods are the same as test 7. Except that just detect 6-actin, hif-1α and vegfaa genes by q-PCR.

VEGFR1 genes = test: Zebrafish q-PCR of VEGFR1 genes; assay type: in vivo; details: 3 days at 28° C., β-actin internal reference, FIG. 4
Procedure: Except that the positive control is bevacizumab (a potent antiangiogenic substance), experimental animals, sample preparation of L-Ergothioneine and sample processing are the same as in test 4.
as §3

Nrf2 = Nrf2 real-time PCR in retina tissues; assay type: in vivo, C57BL/6J mice; details: aged mice, 2 or 10 mg/kg/d by gavage for 5 months
Procedure: as §1, §2
Total RNA was isolated from retina tissues using Trizol reagent. Real-time PCR was measured and performed with the following primers: Nrf2 forward 5′-[…]-3′. RNA samples were reverse-transcribed to cDNA and subjected to quantitative PCR, performed with a Light Cycler 96 Real-Time PCR System using the AceQ qPCR SYBR Green Master Mix. Nrf2 measurements can be identify the capacity of L-Ergothioneine-mediated Nrf2.

[2] = system: zebrafish retinal structure; test: Zebrafish eye histopathology (H&E) after cobalt chloride model; assay type: in vivo; details: FIG. 2
From the text: Experimental animals, sample preparation, sample processing and administration are same as test 4. After that, these zebrafish after 3 days of administration were fixed with 4% histiocyte fixative, then stained with H&E and they were subject to test ocular histopathological analysis.

[3] = system: subretinal choroidal neovascularization (CNV); test: Fluorescein angiography of Matrigel-induced subretinal CNV in aged mice; assay type: in vivo, C57BL/6J mice; details: 2 or 10 mg/kg/d by gavage for 5 months
From the text: The healthy and male C57BL/6J mice at 18-24 months of age were maintained under the barrier conditions in a temperature-controlled environment and fed a commercial mouse chow.
The healthy and male C57BL/6J mice at 14-18 months of age were maintained under the barrier conditions in a temperature-controlled environment and fed a commercial mouse chow.
Animal mode of subretinal choroidal neovascularization (CNV): All mice were subretinally injected with Matrigel in both eyes under general anesthesia. The liquid Matrigel (75% v/v) was prepared using phosphate-buffered saline (PBS) at 4° C. After exposing the sclera, an incision was made between the limbus and the equator using a sharp No. 33 size needle. The Matrigel suspension (0.5 μl per eye) administered via a Hamilton microsyringe with a No. 33 blunt tip needle was slowly injected into the subretinal space along the previous needle tract. Following injection, the Matrigel polymerized to form a solid gel. Fluorescence angiograms were performed over a period of 3 weeks to identify whether mice have CNV.
Fluorescein angiography: After subretinal injection, fluorescein angiograms were obtained on days 3, 7, 10, 14, and 21. Briefly, every mouse group (n=5) were anesthetized with ketamine and xylazine, and the pupils were dilated with 0.5% tropicamide eye drops. […]

[4] = system: subretinal choroidal neovascularization; test: Zebrafish wet macular degeneration model (cobalt chloride), choroidal vessel area; assay type: in vivo; details: 500, 1000, 2000 μg/mL in water, 3 days, 28° C., FIG. 1
Procedure: Experimental animals: Zebrafish were raised in fish water at 28° C. (water quality: 200 mg of instant sea salt was added to each 1 L of reverse osmosis water, the conductivity was 450-550 μS/cm; pH was 6.5-8.5; hardness was […] CaCO3). Transgenic vascular green fluorescent zebrafish (Fli-1 strain) were reproduced by natural paired mating. Age is 1 day after fertilization (1 dpf).
Sample preparation: L-Ergothioneine, white powder, was prepared into 2.00 mg/mL mother solution with standard dilution water. Positive control: Aescin and digitalis double glucoside eye drops was directly sucked the original solution.
Experimental design: The transgenic vascular green fluorescent strain zebrafish aged 1 day after fertilization (1 dpf) were randomly selected and placed in a 6-well plate, with 30 fish in each well (each experimental group). L-Ergothioneine (concentrations of 500, 1000, and 2000 μg/mL) were administered in water solution, respectively, and the positive control escin and digitalis glucoside eye drops (containing 0.3 μg/mL of digitonin and 2.0 μg/mL of escin) were administered, respectively. […] After 3 days of treatment at 28° C., 10 zebrafish were randomly selected from each experimental group and placed under a fluorescence microscope to take pictures, and the NIS-Elements D 3.20 advanced image processing software was used to analyze and collect the data. […]

hif-1α genes = test: Zebrafish q-PCR of hif-1α genes; assay type: in vivo; details: 3 days at 28° C., FIG. 5
Procedure: as §3, §4

ROS = test: Zebrafish ROS fluorescence value (CM-H2DCFDA); assay type: in vivo; details: wild-type AB strain, 500, 1000, 2000 μg/mL, 2 days plus 20 hours staining, FIG. 3
Procedure: After 2 days of supplementation at 28° C., zebrafish were stained with CM-H2DCFDA, and the original concentration in each well remained unchanged. 10 zebrafish were randomly selected from each experimental group and transferred to black 96 microtiter plates.

[5] = system: Reactive oxygen species (ROS); test: ROS in retina tissue by 2',7'-dichlorofluorescein diacetate fluorescence; assay type: in vivo, C57BL/6J mice; details: aged mice, 2 or 10 mg/kg/d by gavage for 5 months
Procedure: as §1, §2
Partial retina tissues were obtained and rapidly broken up in ice-cold normal saline. A tissue homogenate (10%, w/v) was then prepared.
Antioxidant capacity of the retina was measured using an assay based on the ability of the sample to inhibit the oxidation of 2,2′-azino-di-[3-ethylbenzthiazoline sulfonate]+(ABTS) by metmyoglobin. The amount of ABTS+ produced was measured in terms of the decrease in absorbance caused by the antioxidants in the sample. Reactive oxygen species (ROS) were quantified by fluorescence spectroscopy using 2′,7′-dichlorofluorescein diacetate.

C[N+](C)(C)[C@@H](Cc1c[nH]c(=S)[nH]1)C(=O)[O-] [L-Ergothioneine]
mesenchymal marker immunoreactivity in RPE [1]: decreased | oxidation-induced EMT / epithelial fibrosis in RPE [1]: inhibited | decrease of VEGF level in retina (VEGF): about 50% | relative expression level of vegfaa genes (vegfaa genes): lowering the expression level | relative expression level of VEGFR1 genes (VEGFR1 genes): decreasing the expression of VEGFR1 genes | activation of Nrf2-mediated genes in retina (Nrf2): activated | damage of zebrafish retinal structure (histopathological section) ([2]; 500, 1000, 2000 μg/mL, 3 days, H&E): can improve the damage of zebrafish retinal structure | effect on retinal structure compared with positive control eye drops ([2]; versus aescin and digitalis double glucoside eye drops): better than that of aescin and digitalis double glucoside eye drops | CNV level [3]: attenuated obviously | choroidal vessel area of the zebrafish eye [4]: could mitigate subretinal choroidal neovascularization | relative expression level of hif-1α genes (hif-1α genes): lowering the expression level | ROS fluorescence value of zebrafish (ROS): good effect on preventing retinal degeneration | scavenging of chronic ROS in retina [5]: about 45%
